# In patent US10920265B2, “Compounds and methods for detection of enzymes that remove methyl succinyl groups from epsilon-amino lysine moieties” (Enzo Life Sciences, Inc., priority 2011, dated 2021):
# What was measured:
# [1] = molecular target: T1, HDAC6 (Homo sapiens, UniProt Q9UBN7); assay: HDAC activity with fluorogenic lysyl substrates; type: biochemical; settings: 50 μM substrate
# T1 construct: purchased ENZO Life Sciences BML-SE508
# Outline: (§1)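 Deacylase activity was measured at 37 °C by the SIRT1 fluorometric kit method. SIRT1 and its Ac-Arg-His-Lys-Lys(Ac)-AMC substrate were swapped for other human recombinant enzymes and other acylated lysyl-AMC substrates such as Ac-Lys(Succ.)-AMC.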
# [2] = system: HDAC4; assay: HDAC activity with fluorogenic lysyl substrates; type: biochemical, human; settings: 50 μM substrate
# Description: The Ac-Lys(Succ.)-AMC substrate was tested for activity with recombinant preparations of human HDACs 1-11, SIRTs 1-4, 6 and 7, a complex of HDAC3 with a fragment of the activating protein NCOR1 and with HeLa nuclear extract, a rich source of active HDACs in their native multiprotein complexes.
# Enzyme and extract catalog products obtained from ENZO Life Sciences included: HDAC1 (Cat. # BML-SE456), HDAC2 (Cat. # BML-SE500), HDAC3 (Cat. # BML-SE507), HDAC3/NCOR1 Complex (Cat. # BML-SE515), HDAC6 (Cat. # BML-SE508), HDAC8 (Cat. # BML-SE145), HDAC10 (Cat. # BML-SE559), HDAC11 (Cat. # BML-SE560), SIRT1 (Cat. # BML-SE239), SIRT2 (Cat. # BML-SE251), SIRT3 (Cat. # BML-SE270), SIRT5 (Cat. # BML-SE555), HeLa Nuclear Extract (Cat. # BML-KI140), Trypsin (“Fluor de Lys Developer”, 80 mg/ml bovine trypsin in 1 mM HCl, Cat. # BML-KI105 or “Fluor de Lys Developer II”, 80 mg/ml bovine trypsin in 1 mM HCl, Cat. # BML-KI176). […] Enzymes obtained from BPS Bioscience, San Diego, Calif. included: human recombinants SIRT4 (Cat. #50015), SIRT6 (Cat. #50017), SIRT7 (Cat. #50018). […]
# [3] = molecular target: T2, SIRT2 (Homo sapiens, UniProt Q8IXJ6); assay: Sirtuin activity with fluorogenic lysyl substrates; type: biochemical; settings: 50 μM substrate, 500 μM NAD^+
# T2 sequence (Q8IXJ6 1-389): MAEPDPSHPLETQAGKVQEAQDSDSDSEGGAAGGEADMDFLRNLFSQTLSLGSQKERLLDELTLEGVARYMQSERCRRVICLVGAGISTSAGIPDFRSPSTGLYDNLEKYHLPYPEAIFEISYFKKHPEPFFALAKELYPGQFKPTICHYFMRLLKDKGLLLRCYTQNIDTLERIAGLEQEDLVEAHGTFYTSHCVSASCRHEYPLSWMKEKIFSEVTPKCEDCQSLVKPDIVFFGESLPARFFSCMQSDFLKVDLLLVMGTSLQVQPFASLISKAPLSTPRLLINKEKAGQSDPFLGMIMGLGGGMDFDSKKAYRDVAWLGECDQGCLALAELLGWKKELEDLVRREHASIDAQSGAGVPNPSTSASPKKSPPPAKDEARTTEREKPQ
# Outline: as §1
# [4] = molecular target: T3, SIRT4 (Homo sapiens, UniProt Q9Y6E7); assay: Sirtuin activity with fluorogenic lysyl substrates; type: biochemical; settings: 50 μM substrate, 500 μM NAD^+
# T3 construct: purchased BPS Bioscience 50015
# T3 sequence (Q9Y6E7 29-314): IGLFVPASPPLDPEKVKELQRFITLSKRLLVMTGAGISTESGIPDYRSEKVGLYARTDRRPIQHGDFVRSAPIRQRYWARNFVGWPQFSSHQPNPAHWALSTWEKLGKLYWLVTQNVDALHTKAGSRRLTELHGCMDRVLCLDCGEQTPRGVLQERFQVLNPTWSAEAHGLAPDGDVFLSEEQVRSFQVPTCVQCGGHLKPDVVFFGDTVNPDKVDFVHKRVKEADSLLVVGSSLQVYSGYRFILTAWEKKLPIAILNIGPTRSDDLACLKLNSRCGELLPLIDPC
# Outline: as §1
# [5] = system: HeLa cells; assay: Intact HeLa cell desuccinylation/deacetylation assay; type: cell-based, human; settings: 200 μM substrate in medium, four hours
# Description: HeLa cells were cultured to 95% confluence in the wells of ½-volume 96-well plates. […] After the indicated time, cells were lysed with detergent and trypsin added to release AMC from desuccinylated or deacetylated substrate and then fluorescence read (Ex.360 nm/Em. 460 nm). For “0 hr.” samples, substrate, inhibitors, lysis buffer and trypsin were added simultaneously. Bars represent the mean of three determinations and the error bars the Standard Deviation from that mean. Statistically significant differences between the fluorescences of “4 hr.” and “0 hr.” samples (Student's t-test) are indicated by asterisks as follows: *,p<0.02; **, p<0.002.
# An assay employing Ac-Lys(Ac.)-AMC to measure the HDAC and sirtuin deacetylase activity of intact cultured cells has been described (Howitz, K. T. et al. Nature 425, 191-196 (2003); Product Manual of Enzo Life Sciences Cat. # BML-AK-503, “HDAC Fluorimetric Cellular Activity Assay Kit”, Appendix F). Ac-Lys(Ac)-AMC is added to the culture medium, enters the cells and is deacetylated by HDACs and sirtuins in their native intracellular context. Measurement of the amount of Ac-Lys-AMC produced by intracellular deacetylation is then accomplished by detergent lysis of the cells and release of the AMC fluorophore by trypsin. We therefore investigated whether Ac-Lys(Succ.)-AMC could be used to measure intracellular desuccinylation activity, in a similar fashion, with cultured HeLa cells. […] These latter, deacetylation results are consistent with previous observations made with this assay system (see Howitz, K. T. et al. Nature 425, 191-196 (2003) and Appendix F).
# Assays (FIG. 10) were performed according to the manufacturer's instructions for the ““HDAC Fluorometric Cellular Activity Assay Kit” (ELS Cat. # BML-AK503), with exceptions described as follows. Where indicated the “Fluor de Lys Substrate” (Ac-Lys(Ac.)-AMC; ELS Cat. # BML-KI104) was replaced with Ac-Lys(Succ.)-AMC (1).
# T1 sequence (Q9UBN7 whole entry): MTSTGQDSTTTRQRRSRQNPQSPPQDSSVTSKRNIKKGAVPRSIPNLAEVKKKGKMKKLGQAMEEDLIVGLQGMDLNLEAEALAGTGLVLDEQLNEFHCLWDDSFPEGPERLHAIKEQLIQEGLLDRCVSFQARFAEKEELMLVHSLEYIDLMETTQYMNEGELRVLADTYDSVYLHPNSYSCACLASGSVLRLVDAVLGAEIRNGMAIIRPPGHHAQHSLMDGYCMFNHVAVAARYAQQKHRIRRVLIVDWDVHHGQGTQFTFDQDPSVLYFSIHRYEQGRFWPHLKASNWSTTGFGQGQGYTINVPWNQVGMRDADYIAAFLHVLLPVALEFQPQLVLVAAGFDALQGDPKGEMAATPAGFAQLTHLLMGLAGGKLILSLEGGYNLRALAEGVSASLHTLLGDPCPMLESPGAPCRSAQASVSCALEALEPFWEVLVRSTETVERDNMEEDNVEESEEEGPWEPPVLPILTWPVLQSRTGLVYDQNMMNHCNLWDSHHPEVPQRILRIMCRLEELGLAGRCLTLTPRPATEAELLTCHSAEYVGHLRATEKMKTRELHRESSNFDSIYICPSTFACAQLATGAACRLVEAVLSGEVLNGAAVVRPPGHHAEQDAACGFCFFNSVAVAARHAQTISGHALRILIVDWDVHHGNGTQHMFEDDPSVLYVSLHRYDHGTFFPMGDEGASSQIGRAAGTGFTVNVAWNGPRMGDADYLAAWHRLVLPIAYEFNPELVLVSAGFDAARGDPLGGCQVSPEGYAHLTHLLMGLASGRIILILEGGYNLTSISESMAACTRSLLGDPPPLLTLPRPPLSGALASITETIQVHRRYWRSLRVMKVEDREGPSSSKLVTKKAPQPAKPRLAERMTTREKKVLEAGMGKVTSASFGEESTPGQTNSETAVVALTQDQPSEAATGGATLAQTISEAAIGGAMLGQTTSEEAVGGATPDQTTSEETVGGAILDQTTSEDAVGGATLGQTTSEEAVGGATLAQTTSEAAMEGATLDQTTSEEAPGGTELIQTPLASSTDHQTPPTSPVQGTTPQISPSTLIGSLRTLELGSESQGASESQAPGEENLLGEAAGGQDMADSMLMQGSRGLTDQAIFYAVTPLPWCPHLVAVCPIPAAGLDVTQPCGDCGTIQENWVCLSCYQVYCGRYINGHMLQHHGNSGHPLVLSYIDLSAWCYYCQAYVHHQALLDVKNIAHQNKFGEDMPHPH
Activity [1] [pmol/min/µg],Activity [3] [pmol/min/µg],Activity (pmol/min/μg) [4],Activity (pmol/min/μg) [1],Activity (pmol/min/μg) [3],SMILES,Activity (pmol/min/μg) [2],Intracellular desuccinylation/deacetylation of substrate [5]
1.0,0.016,Undetectable,,,"CC(=O)NCCCCC(NC(C)=O)C(=O)Nc1ccc2c(C)cc(=O)oc2c1 (stereo not shown) [Ac-Lys(Ac.)-AMC, Ac-Lys(ε-acetyl)-AMC, reference compound]",Undetectable,significant deacetylation
,,Undetectable,Undetectable,Undetectable,"CC(=O)N[C@@H](CCCCNC(=O)CCC(=O)O)C(=O)Nc1ccc2c(C)cc(=O)oc2c1 [Compound 1, N—(N^α-acetyl-L-Lysine(N^ε-succinyl))-AMC]",Undetectable,no significant desuccinylation
